Read-outs that look alike come from different tables or passages of the source.
Key:
[1] = test system: HSV-1 KOS strain; assay: Synergistic studies of acyclovir and the title compound of example 9 in the cell culture assay, HSV-1 KOS strain; format: cell-based, Herpes simplex virus type 1; details: for EC50: MOI = 0.05 PFU/cell
Method: BHK-21 cells clone 13 (ATCC CCL10) were incubated for two days in 850 cm^2 roller bottles (2×10^7 cells/bottle) with alpha-MEM medium (Gibco Canada Inc., Burlington, Ontario, Canada) supplemented with 8% (v/v) fetal bovine serum (FBS, Gibco Canada, Inc.). The cells were trypsinized and then transferred to fresh media in a 96-well microtiter plate at a density of 50,000 cells per well in 100 μL. The cells were incubated at 37° for a period of 6 hours to allow adhesion to the plate. The cells then were washed once with 100 μL of alpha-MEM supplemented with 0.5% FBS (v/v) and incubated with 100 μL of the same media for 3 days. After this period of serum starvation, the low serum media was removed. The cells were washed once with 100 μL BBMT and incubated for two hours in 100 μL of the same media. {Note: BBMT medium is described by P. Brazeau et al., Proc. Natl. Acad. Sci. U.S.A., 79, 7909 (1980).}
Thereafter, the cells were infected with HSV-1 strain F or KOS (multiplicity of infection =0.05 PFU/cell) in 50 μL of BBMT medium. Following one hour of virus absorption at 37°, the media was removed and the cells were washed with BBMT (2×100 μL). The cells were incubated with or without 100 μL of the appropriate concentration of test reagent in BBMT medium. After 24 hours of incubation at 37°, the extent of viral replication was determined by an ELISA assay; for instance, the following assay that detects the late glycoprotein C of HSV-1.
Cells were fixed in a microtiter plate with 100 μL of 0.063% glutaraldehyde in phosphate buffered saline for 30 minutes at room temperature. The microtiter plate was then washed once with casein blocking solution and blocked with 200 μL of the same solution for one hour at room temperature. Thereafter, 100 μL of mAB Cll recognizing HSV-1 gC envelope protein [see E. Trybala et al., Journal of General Virology, 75, 743 (1994)] was added to each well for two hours at room temperature. The plate was washed three times with phosphate buffered saline containing 0.05% polyoxyethylene (20) sorbitan monooleate. The cells were and incubated with 100 μL of sheep anti-mouse IgC horseradish peroxidase for one hour at room temperature in the dark.
The plate then was washed three times with 200 μL of the above-noted phosphate buffer saline preparation, and then once with 0.1M sodium citrate (pH 4.5). Thereafter, 100 μL of orthophenylenediamine dihydrochloride (OPD, Gibco, Canada Inc.) was added to each well. The plate was agitated on a microplate shaker for 30 minutes in the dark. Color development was monitored at 450 nm using a microplate spectrophotometer.
SAS was used to calculate % inhibition of viral replication and to generate ECl50 values.
The results are illustrated in accompanying FIG. 1.
More explicitly with reference to the isobole method, this method requires experimental data generated for the two test compounds, each alone and in different combinations. In this way selected concentrations of the title compound of example 9 (EC5, EC10, EC20 and EC30) were added to a given concentration of ACV and the EC50 's were evaluated as described previously. For these experiments, the EC5, EC10, EC20 and EC30 of the title compound of example 9 (i.e. the test compound) were derived from inhibition curves previously obtained. An isobologram is generated using for the Y axis a value termed FEC60 (ACV) (which is the ratio of the concentration of ACV required to inhibit HSV replication by 60% in the presence of a fixed concentration of the test compound to the concentration required in the absence of the test compound). This is plotted against a term representing the ratio of the fixed concentration of the test compound to the concentration of the test compound that reduced inhibition of HSV replication in the absence of ACV (the X axis).
The following TABLE III is illustrative of results obtained when combinations of ACV and the title compound of example 9 (TC) were evaluated for their antiherpes activity against HSV-1. […]

[2] = test system: HSV-1 strain F; assay: Inhibition of HSV-1 replication in cell culture (BHK-21 cells, ELISA of glycoprotein C), strain F; format: cell-based, Herpes simplex virus type 1; details: 24 hours incubation, read-out: EC50 (inhibition of viral replication)
Method: BHK-21 cells clone 13 (ATCC CCL10) were incubated for two days in 850 cm^2 roller bottles (2×10^7 cells/bottle) with alpha-MEM medium (Gibco Canada Inc., Burlington, Ontario, Canada) supplemented with 8% (v/v) fetal bovine serum (FBS, Gibco Canada, Inc.). The cells were trypsinized and then transferred to fresh media in a 96-well microtiter plate at a density of 50,000 cells per well in 100 μL. The cells were incubated at 37° for a period of 6 hours to allow adhesion to the plate. The cells then were washed once with 100 μL of alpha-MEM supplemented with 0.5% FBS (v/v) and incubated with 100 μL of the same media for 3 days. After this period of serum starvation, the low serum media was removed. The cells were washed once with 100 μL BBMT and incubated for two hours in 100 μL of the same media. {Note: BBMT medium is described by P. Brazeau et al., Proc. Natl. Acad. Sci. U.S.A., 79, 7909 (1980).} Thereafter, the cells were infected with HSV-1 strain F or KOS (multiplicity of infection =0.05 PFU/cell) in 50 μL of BBMT medium. Following one hour of virus absorption at 37°, the media was removed and the cells were washed with BBMT (2×100 μL). The cells were incubated with or without 100 μL of the appropriate concentration of test reagent in BBMT medium. After 24 hours of incubation at 37°, the extent of viral replication was determined by an ELISA assay; for instance, the following assay that detects the late glycoprotein C of HSV-1. Cells were fixed in a microtiter plate with 100 μL of 0.063% glutaraldehyde in phosphate buffered saline for 30 minutes at room temperature. The microtiter plate was then washed once with casein blocking solution and blocked with 200 μL of the same solution for one hour at room temperature. […] Color development was monitored at 450 nm using a microplate spectrophotometer. […] The following TABLE II provides examples of the results obtained when compounds of formula 1 were evaluated according to the cell culture assay (HSV-1 strain F) of this example.

[3] = molecular target: T1, HSV-1 ribonucleotide reductase (Human herpesvirus 1, UniProt P08543); assay: Inhibition of Herpes Simplex Virus (HSV-1) ribonucleotide reductase; format: biochemical; details: partially purified enzyme from HSV-1 strain F infected BHK-21/C13 cells; mean of four assays; read-out: IC50 (concentration producing 50% of the maximal inhibition of enzyme activity)
T1 construct: HSV-1 ribonucleotide reductase (partially purified) was obtained from quiescent BHK-21/Cl13 cells infected with strain F HSV-1 virus; made in house; host or cells: quiescent BHK-21/C13 hamster cells infected with HSV-1 strain F; native viral enzyme, partially purified
T1 sequence (P08543 whole entry): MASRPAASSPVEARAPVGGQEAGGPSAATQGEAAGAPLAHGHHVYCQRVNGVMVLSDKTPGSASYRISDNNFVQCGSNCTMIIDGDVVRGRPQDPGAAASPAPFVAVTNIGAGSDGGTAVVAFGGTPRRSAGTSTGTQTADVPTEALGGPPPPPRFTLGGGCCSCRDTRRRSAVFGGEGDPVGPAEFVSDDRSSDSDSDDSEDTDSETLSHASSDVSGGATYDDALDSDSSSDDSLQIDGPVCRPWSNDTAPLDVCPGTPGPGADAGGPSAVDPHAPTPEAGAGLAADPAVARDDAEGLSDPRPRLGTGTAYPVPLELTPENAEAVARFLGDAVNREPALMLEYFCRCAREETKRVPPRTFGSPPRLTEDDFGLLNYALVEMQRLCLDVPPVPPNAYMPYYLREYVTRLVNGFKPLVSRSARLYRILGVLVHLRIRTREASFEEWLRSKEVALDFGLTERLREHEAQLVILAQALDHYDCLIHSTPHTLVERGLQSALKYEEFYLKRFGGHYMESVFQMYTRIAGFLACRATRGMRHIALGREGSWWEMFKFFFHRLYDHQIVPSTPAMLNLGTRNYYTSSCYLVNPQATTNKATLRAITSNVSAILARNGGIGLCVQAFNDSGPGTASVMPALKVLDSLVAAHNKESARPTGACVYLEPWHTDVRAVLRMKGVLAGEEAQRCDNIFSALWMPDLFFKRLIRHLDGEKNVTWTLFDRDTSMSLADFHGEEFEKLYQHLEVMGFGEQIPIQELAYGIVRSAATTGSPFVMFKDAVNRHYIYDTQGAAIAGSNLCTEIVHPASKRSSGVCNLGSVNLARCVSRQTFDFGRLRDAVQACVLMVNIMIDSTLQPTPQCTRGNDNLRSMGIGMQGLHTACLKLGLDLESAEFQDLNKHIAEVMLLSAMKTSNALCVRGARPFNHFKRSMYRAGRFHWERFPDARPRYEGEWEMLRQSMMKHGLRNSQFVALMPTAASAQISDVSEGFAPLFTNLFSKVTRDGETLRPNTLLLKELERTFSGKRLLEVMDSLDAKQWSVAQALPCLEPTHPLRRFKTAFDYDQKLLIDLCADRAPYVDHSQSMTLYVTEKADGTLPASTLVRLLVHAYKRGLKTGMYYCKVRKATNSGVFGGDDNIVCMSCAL
Text: HSV-1 ribonucleotide reductase (partially purified) was obtained from quiescent BHK-21/Cl13 cells infected with strain F HSV-1 virus at 10 plaque forming units/cell as described by E. A. Cohen et al., J. Gen. Virol., 66, 733 (1985).
The assay described by P. Gaudreau et al., J. Biol, Chem., 262, 12413 (1987), is used to evaluate the capability of the compounds of formula 1 to inhibit HSV-1 ribonucleotide reductase activity. The assay results are expressed as the concentration of the compound producing 50% of the maximal inhibition (IC50) of enzyme activity. The number of units of the enzyme preparation used in each assay was constant, based on the specific activity of the enzyme preparation. The results are relative to the activity obtained in control experiments without the test compound and represent the means of four assays that varied less than 10% with each other.

Row | Molecule | EC50 ([1]; ACV + 0.05 μM of TC, read-out: EC50 of ACV in combination) | EC50 ([1]; ACV + 0.1 μM of TC, read-out: EC50 of ACV in combination) | EC50 ([1]; ACV + 0.15 μM of TC, read-out: EC50 of ACV in combination) | EC50 ([1]; ACV + 0.2 μM of TC, read-out: EC50 of ACV in combination) | EC50 ([1]; ACV + 0.3 μM of TC, read-out: EC50 of ACV in combination) | EC50 ([1]; ACV + 0.4 μM of TC, read-out: EC50 of ACV in combination) | EC50 ([1]; compound alone, read-out: EC50) | EC50 [2] | IC50 [3] | Effect of combining with acyclovir on the EC50 of acyclovir (synergy, isobole method) ([1]; increasing concentrations of the title compound of example 9)
1 | Nc1nc2c(ncn2COCCO)c(=O)[nH]1 [ACV, acyclovir] | 6300 nM | 3200 nM | 1790 nM | 1790 nM | 1000 nM | 500 nM | 6950 nM | – | – | –
2 | CC[C@@H](NC(=O)[C@@H](NC(=O)[C@@H](CC(=O)[C@@H](NC(=O)[C@H](C(C)C)N(C)C(=O)[C@H](C)CC1CCCCC1)C(C)(C)C)CC(=O)C(C)(C)C)C1(C(=O)O)CCCC1)C(C)(C)C [R^1 =H and R^2 =Me, (3-Cyclohexyl-2(R)-methyl-1-oxopropyl)-(N--Me) Val-Tbg-CH2 --(R)--CH(CH2 C(O)CMe3)--C (O)-Asp(cyPn)-NH--(R)--CH(Et)CMe3] | – | – | – | – | – | – | 473 nM | 400 nM | 147 nM | proportional lowering of the EC50 of acyclovir
3 | (3-cyclohexyl-2 (R), 3 (R)-dimethyl-1-oxopropyl)-(N-Me) Val-Tbg-CH2 --(R)--CH (CH2 C(O) CMe3)C(O)-Asp (cyPn)-NH--(R)--CH (Et) CMe3 [R^1 and R^2 =Me] | – | – | – | – | – | – | – | 200 nM | 191 nM | –
4 | {3-cyclohexyl-2(S)-(1-methylethyl)-1-oxopropyl}-(N-Me) Val-Tbg-CH2 --(R)--CH(CH2 C(O)CMe3)C(O)-Asp(cypn)-NH--(R)--CH (Et)CMe3 [R^1 =H and R^2 =CHMe2] | – | – | – | – | – | – | – | 200 nM | 123 nM | –
